Where two headings read alike, the source gives them in different places.
Assays:
human CB2 [1] = molecular target: T1, human CB2 (Homo sapiens, UniProt P34972); experiment: Radioligand binding assay with [3H]CP-55,940, HEK293 cells expressing hCB2; design: expressed in transfected cells; host or cells: HEK293 cells
Protocol: (§1) The affinities (IQ of the new compounds for rat CB1 receptor as well as for human CB2 receptors were obtained by using membrane preparations from rat brain or HEK293 cells expressing hCB2 receptors, respectively, and [^3H]CP-55,940 as the radioligand, as previously described. Results from the competition assays were analyzed using nonlinear regression to determine the IC50 values for the ligand; Ki values were calculated from the I50 (Prism by GraphPad Software, Inc.). Each experiment was performed in triplicate and Ki values determined from three independent experiments and are expressed as the mean of the three values.

rat CB1 receptor = molecular target: T2, rat CB1 receptor (Rattus norvegicus, UniProt P20272); experiment: Radioligand binding assay with [3H]CP-55,940, rat brain membranes
T2 construct: membrane preparations from rat brain; from tissue; host or cells: rat brain membranes
Protocol: as §1

human CB2 [2] = molecular target: T1, human CB2; experiment: Tango β-arrestin recruitment antagonist assay at CB2; assay type: cell-based; design: expressed in transfected cells; host or cells: HTLA cells; conditions: Tango antagonist assay with 100 nM CP55940; n=4 independent assays, 16 dose-response points; read-out: CB2 Antagonist potency Ki
Protocol: (§2) The Tango arrestin recruitment assays were performed as previously described. Briefly, HTLA cells were transiently transfected with human CB1 or CB2 Tango DNA construct overnight in DMEM supplemented with 10% FBS, 100 μg/ml streptomycin and 100 U/ml penicillin. The transfected cells were then plated into Poly-L-Lysine coated 384-well white clear bottom cell culture plates in DMEM containing 1% dialyzed FBS at a density of 10,000-15,000 cells/well. After 6 hours incubation, the plates were added with drug solutions prepared in DMEM containing 1% dialyzed FBS for overnight incubation. […] On the day of assay, medium and drug solutions were removed and 20 μL/well of BrightGlo reagent (Promega) was added. The plates were further incubated for 20 min at room temperature and counted using a Wallac TriLux Microbeta counter (PerkinElmer). Results were analyzed using GraphPad Prism 8.

human CB1 = molecular target: T3, human CB1 (Homo sapiens, UniProt P21554); assay type: cell-based; conditions: read-out: CB1 Antagonist potency Ki
T3 construct: expressed in transfected cells; host or cells: HTLA cells
Protocol: as §2

[3] = tested on: panel of more than 300 receptors; experiment: PRESTO-Tango GPCRome off-target panel; assay type: cell-based; conditions: for activities at off-targets in follow-up dose-response curves: follow-up dose-response of potential actives
Protocol: Screening of the compounds in the PRESTO-Tango GPCRome was performed as previously described with modifications. First, HTLA cells were plated in poly-L-lysine coated 384-well white plates in DMEM containing 1% dialyzed FBS for 6 hours. Next, the cells were transfected with 20 ng/well PRESTO-Tango receptor DNAs overnight. Then, the cells were added with 10 μM drugs without changing the medium and incubated for another 24 hours. The remaining steps of the PRESTO-Tango protocol were followed. The results were plotted as fold of basal against individual receptors in the GraphPad 8.0 software. For the receptors that had >3-fold of basal signaling activity, assays were repeated as a full dose-response assay and the results were plotted as a percentage of reference compounds.

[4] = human CB2, [3H]CP-55,940 radioligand, read-out: CB2 affinity Ki
[5] = rat CB1, [3H]CP-55,940, estimates from 3-point assays, read-out: CB1 affinity Ki (asterisk: estimate from 3-point assays)
[6] = rat CB1, [3H]CP-55,940 radioligand, read-out: CB1 affinity Ki
[7] = human CB2, [3H]CP-55,940, estimates from 3-point assays, read-out: CB2 affinity Ki (asterisk: estimate from 3-point assays)

T1 sequence (P34972 whole entry): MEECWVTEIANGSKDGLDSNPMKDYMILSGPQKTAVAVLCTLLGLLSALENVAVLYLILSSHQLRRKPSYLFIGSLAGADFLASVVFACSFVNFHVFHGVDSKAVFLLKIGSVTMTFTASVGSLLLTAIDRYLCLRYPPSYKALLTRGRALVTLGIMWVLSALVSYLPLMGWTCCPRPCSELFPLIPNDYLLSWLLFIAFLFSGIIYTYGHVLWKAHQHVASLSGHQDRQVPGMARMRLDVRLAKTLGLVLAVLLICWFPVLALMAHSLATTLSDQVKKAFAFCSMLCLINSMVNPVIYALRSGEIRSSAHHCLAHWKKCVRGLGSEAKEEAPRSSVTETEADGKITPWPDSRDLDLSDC
T3 sequence (P21554 whole entry): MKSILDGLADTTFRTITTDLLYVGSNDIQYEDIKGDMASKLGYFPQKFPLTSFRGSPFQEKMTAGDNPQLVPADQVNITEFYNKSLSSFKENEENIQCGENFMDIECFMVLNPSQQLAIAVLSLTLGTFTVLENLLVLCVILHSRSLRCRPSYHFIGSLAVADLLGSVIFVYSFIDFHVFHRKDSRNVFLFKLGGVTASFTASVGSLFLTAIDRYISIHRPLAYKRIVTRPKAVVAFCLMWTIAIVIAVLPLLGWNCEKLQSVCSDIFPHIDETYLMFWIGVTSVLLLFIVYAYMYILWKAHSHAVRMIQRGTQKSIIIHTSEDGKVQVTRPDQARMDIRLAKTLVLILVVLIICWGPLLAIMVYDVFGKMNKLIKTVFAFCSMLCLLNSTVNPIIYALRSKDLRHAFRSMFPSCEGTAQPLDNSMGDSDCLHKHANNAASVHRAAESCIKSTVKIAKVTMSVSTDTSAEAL
T2 sequence (P20272 whole entry): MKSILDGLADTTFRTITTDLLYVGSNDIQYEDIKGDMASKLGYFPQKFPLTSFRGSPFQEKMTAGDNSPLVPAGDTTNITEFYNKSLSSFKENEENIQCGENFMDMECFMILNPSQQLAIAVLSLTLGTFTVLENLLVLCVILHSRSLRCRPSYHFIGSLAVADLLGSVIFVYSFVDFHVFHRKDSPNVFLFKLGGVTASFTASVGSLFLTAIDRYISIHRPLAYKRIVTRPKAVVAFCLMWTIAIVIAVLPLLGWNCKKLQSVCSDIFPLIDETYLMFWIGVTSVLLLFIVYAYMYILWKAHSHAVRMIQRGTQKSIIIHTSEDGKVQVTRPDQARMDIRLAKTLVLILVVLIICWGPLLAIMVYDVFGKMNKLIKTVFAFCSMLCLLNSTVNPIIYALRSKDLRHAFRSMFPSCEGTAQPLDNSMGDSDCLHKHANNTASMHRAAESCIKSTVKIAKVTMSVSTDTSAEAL

SMILES | Ki (human CB2 [1]; [4]) [µM] | Ki (rat CB1 receptor; [5]) [µM] | Ki (human CB2 [2]) [µM] | Ki (human CB1) [µM] | activities at off-targets in follow-up dose-response curves [3] | Ki (rat CB1 receptor; [6]) [µM] | selectivity against the GPCRome-Tango panel ([3]; panel of more than 300 receptors) | Ki (human CB2 [1]; [7]) [µM]
O=C(C1CC1)N1CCc2ccc(S(=O)(=O)NC(CCc3ccccc3)c3ccccn3)cc21 (stereo not drawn) [BRI-13663] | 14.3 | 12.5 | 14.5 | – | – | – | – | –
O=C(Nc1ccn(C2CCCCC2)n1)C(=O)NC(CCc1ccccc1)c1ccccc1 (stereo not drawn) [BRI-13610] | 0.28 | – | 4.17 | 0.76 | only negligible activities | 0.62 | – | –
C=CCC1(S(=O)(=O)NC(=O)c2ccc(N3CCCCC3)c(S(=O)(=O)N3CCCCCC3)c2)CC1 [BRI-13523] | 0.85 | – | 1.59 | 1.82 | only negligible activities | 12 | high selectivity | –
Cc1cc(Cl)cn2cc(CNC(=O)C(=O)NC(COc3ccccc3)c3ccccc3)nc12 (stereo not drawn) [BRI-13520] | 12.8 | – | 5.2 | 1.07 | – | 11.6 | – | –
CC1(C)NC(=O)N(CCCNC(=O)NCc2oc3ccc(Cl)cc3c2-c2ccccc2)C1=O [BRI-13559] | 12.2 | – | 4.25 | 0.98 | – | – | – | –
COc1ccc(-c2nccc(N3CCCC(Cc4ccc(N)nc4)C3)n2)cc1 (stereo not drawn) [BRI-13565] | 13.6 | 4.5 | 3.77 | – | – | – | – | –
O=C1Cc2cc(NC(=O)C(=O)NC(CCc3ccccc3)c3ccccc3)ccc2N1 (stereo not drawn) [BRI-13515] | 2.85 | – | 3.81 | 0.94 | – | 6.1 | – | –
O=S(=O)(NC1CC1)c1ccc(S(=O)(=O)NC(CCc2ccccc2)c2ccccn2)cc1 (stereo not drawn) [BRI-13661] | 4 | 19 | 4.37 | 0.55 | – | – | – | –
CCCC(NS(=O)(=O)C1CC2(CC2)C1)C(=O)Nc1cccc(N2CCCC2)c1 (stereo not drawn) [BRI-13681] | 4.2 | – | 1.86 | 0.42 | – | 8.2 | – | –
O=C(c1ccc(F)cc1)c1cc(Cl)ccc1NS(=O)(=O)c1cnn(C2CCCCC2)c1 [BRI-13665] | 6.7 | > 7 | 0.82 | 0.39 | – | – | – | –
Cc1ccc(CN(Cc2ccco2)S(=O)(=O)c2cnn(-c3ccccc3F)c2)s1 [BRI-13668] | 5.2 | – | 4.78 | – | – | – | – | –
O=C(NCC1(Cc2ccccc2)CC=CCC1)C(=O)Nc1c(F)ccc(Br)c1F (stereo not drawn) [BRI-13566] | 1.2 | 6.9 | 4.04 | 2.05 | – | – | – | –
N#Cc1ccc(C(=O)NCCN(Cc2ccccc2)C(=O)c2cc(C(F)(F)F)cs2)s1 [BRI-13633] | – | 10 | 1.53 | 0.23 | – | – | – | –
O=C1CCc2cc(OCCNC(=O)N(Cc3ccccc3)Cc3ccc(F)cc3)ccc2N1 [BRI-13619] | – | 45 | 0.11 | 0.05 | – | – | – | –
Cc1ccc(NC(=O)N2CCC(O)(c3ccccc3F)C2)cc1S(=O)(=O)N1CCCCCC1 (stereo not drawn) [BRI-13599] | 10.4 | 26.5 | 2.44 | 2.33 | – | – | – | –
O=S(=O)(C1=Cc2cc(Cl)ccc2OC1)N(CCc1ccccn1)Cc1cccnc1 [BRI-13684] | 5.3 | – | 7.28 | 1.16 | – | 25.5 | – | –
CS(C)(=O)=NS(=O)(=O)c1cccc(C(=O)OCc2cccc3ccsc23)c1 [BRI-13650] | – | 45 | 12.2 | 3.22 | – | – | – | –
Cc1ccc(NC(=O)Nc2ccn(C3CCCCCC3)n2)cc1S(=O)(=O)N1CCCCCC1 [BRI-13544] | – | – | 7.78 | – | – | – | – | 2.5
Cc1ccc(NC(=O)Nc2ccn(C3CCOCC3)n2)cc1S(=O)(=O)N1CCCCCC1 [BRI-13505] | – | – | 0.54 | 0.28 | – | 16.4 | – | 1
Cn1ccc(-n2cc(-c3csc(C(NC(=O)c4ccccc4)c4ccccc4)n3)nn2)n1 (stereo not drawn) [BRI-13580] | – | – | 6.92 | 5.8 | – | – | – | 1.5

From US20220293224A1, “MODULAR SYNTHON-BASED SCREENING APPROACH FOR USE IN DRUG DISCOVERY FOR DISEASES” (priority 2021, published 2022)
